Data published in ChEMBL document CHEMBL4507272 (2021).

Tests used:
[1] = tested on: Proto-oncogene tyrosine-protein kinase receptor Ret (Homo sapiens), P07949 [V804L]; conditions: Compound concentration 1000.0 nM
[2] = target: SRSF protein kinase 2 (Homo sapiens) (UniProt P78362); conditions: Compound concentration 1000.0 nM
[3] = tested on: Receptor-type tyrosine-protein kinase FLT3 (Homo sapiens), P36888 [UNDEFINED MUTATION]; conditions: Compound concentration 1000.0 nM
[4] = target: Activin receptor type-1B (Homo sapiens) (UniProt P36896); conditions: Compound concentration 1000.0 nM
[5] = target: Dual specificity testis-specific protein kinase 1 (Homo sapiens) (UniProt Q15569); conditions: Compound concentration 1000.0 nM
Dual specificity testis-specific protein kinase 1 (Homo sapiens), sequence (Q15569 whole entry, looked up): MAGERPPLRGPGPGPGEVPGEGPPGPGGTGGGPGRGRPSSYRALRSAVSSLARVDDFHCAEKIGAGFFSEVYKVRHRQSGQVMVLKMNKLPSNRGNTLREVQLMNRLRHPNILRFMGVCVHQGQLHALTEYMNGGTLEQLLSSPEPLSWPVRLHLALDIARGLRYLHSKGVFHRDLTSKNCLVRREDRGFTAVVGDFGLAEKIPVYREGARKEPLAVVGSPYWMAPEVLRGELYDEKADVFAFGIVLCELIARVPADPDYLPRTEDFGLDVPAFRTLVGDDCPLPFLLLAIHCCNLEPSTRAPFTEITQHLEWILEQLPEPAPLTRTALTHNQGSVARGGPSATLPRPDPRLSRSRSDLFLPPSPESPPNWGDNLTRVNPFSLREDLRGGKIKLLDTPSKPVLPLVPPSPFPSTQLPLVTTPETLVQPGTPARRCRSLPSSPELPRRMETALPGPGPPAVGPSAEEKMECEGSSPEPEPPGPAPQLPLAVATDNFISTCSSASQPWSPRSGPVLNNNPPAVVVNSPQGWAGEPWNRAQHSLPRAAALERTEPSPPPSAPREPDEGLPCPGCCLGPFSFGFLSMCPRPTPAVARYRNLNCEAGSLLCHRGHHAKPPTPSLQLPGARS

[6] = target: 5-hydroxytryptamine receptor 6 (Homo sapiens) (UniProt P50406); conditions: Compound concentration 10.0 uM
[7] = target: Calcium/calmodulin-dependent protein kinase type 1 (Homo sapiens) (UniProt Q14012); conditions: Compound concentration 1000.0 nM
[8] = tested on: Epidermal growth factor receptor (Homo sapiens), P00533 [L861Q]; conditions: Compound concentration 1000.0 nM
[9] = target: Myosin light chain kinase, smooth muscle (Homo sapiens) (UniProt Q15746); conditions: Compound concentration 1000.0 nM
[10] = target: Calcium/calmodulin-dependent protein kinase type 1B (Homo sapiens) (UniProt Q6P2M8); conditions: Compound concentration 1000.0 nM
Calcium/calmodulin-dependent protein kinase type 1B (Homo sapiens), sequence (Q6P2M8 whole entry): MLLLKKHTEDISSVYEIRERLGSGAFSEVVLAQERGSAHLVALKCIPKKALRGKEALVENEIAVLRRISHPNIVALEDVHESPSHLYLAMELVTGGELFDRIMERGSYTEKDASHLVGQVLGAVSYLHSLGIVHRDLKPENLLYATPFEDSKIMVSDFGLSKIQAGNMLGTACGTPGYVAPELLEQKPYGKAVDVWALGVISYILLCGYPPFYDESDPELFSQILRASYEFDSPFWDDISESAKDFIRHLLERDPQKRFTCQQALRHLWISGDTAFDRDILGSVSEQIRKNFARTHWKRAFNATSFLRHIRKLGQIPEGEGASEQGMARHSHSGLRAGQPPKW

[11] = target: NT-3 growth factor receptor (Homo sapiens) (UniProt Q16288); conditions: Compound concentration 1000.0 nM
[12] = target: Beta-adrenergic receptor kinase 1 (Homo sapiens) (UniProt P25098); conditions: Compound concentration 1000.0 nM
[13] = target: Epidermal growth factor receptor (Homo sapiens) (UniProt P00533); conditions: Compound concentration 1000.0 nM
[14] = target: Tyrosine-protein kinase Blk (Homo sapiens) (UniProt P51451); conditions: Compound concentration 1000.0 nM
[15] = tested on: ALK tyrosine kinase receptor (Homo sapiens), Q9UM73 [L1196M]; conditions: Compound concentration 1000.0 nM
[16] = tested on: Tyrosine-protein kinase ABL1 (Homo sapiens), P00519 [F317L]; conditions: Compound concentration 1000.0 nM
Tyrosine-protein kinase ABL1 (Homo sapiens), P00519 [F317L], sequence (P00519 whole entry F317L): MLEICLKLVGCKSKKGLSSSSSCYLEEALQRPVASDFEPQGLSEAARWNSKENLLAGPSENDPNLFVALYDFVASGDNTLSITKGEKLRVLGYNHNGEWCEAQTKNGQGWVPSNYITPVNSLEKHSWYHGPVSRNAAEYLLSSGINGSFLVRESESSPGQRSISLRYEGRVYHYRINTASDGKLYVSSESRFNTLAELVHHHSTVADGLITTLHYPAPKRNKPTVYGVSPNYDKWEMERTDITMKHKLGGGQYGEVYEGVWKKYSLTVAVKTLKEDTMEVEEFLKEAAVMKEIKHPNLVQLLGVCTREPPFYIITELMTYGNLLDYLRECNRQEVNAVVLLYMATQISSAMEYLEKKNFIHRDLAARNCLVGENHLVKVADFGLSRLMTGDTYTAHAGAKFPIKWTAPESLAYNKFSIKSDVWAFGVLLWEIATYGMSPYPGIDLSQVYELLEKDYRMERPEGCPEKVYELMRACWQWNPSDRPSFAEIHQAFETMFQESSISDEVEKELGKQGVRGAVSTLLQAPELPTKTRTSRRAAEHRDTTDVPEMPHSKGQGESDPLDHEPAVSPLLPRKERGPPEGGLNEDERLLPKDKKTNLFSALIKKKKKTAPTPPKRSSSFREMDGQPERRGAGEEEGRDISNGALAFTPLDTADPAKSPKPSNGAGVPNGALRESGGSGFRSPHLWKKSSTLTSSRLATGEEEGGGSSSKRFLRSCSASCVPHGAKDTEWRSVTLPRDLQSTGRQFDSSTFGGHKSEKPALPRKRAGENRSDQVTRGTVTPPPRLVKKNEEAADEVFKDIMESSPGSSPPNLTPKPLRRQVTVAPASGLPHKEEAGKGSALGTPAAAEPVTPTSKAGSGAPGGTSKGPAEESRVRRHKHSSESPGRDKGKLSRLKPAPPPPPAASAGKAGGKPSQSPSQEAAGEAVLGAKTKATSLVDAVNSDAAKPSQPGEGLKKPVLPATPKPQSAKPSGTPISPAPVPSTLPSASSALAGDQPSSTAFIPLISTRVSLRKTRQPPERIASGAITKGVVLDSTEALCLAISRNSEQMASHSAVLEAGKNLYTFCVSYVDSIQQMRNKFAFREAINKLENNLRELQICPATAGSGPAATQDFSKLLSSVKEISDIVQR

[17] = target: Serine/threonine-protein kinase 33 (Homo sapiens) (UniProt Q9BYT3); conditions: Compound concentration 1000.0 nM
[18] = target: Mitogen-activated protein kinase kinase kinase 2 (Homo sapiens) (UniProt Q9Y2U5); conditions: Compound concentration 1000.0 nM
[19] = target: Tyrosine-protein kinase Fyn (Homo sapiens) (UniProt P06241); conditions: Compound concentration 1000.0 nM
[20] = target: Bone morphogenetic protein receptor type-1A (Homo sapiens) (UniProt P36894); conditions: Compound concentration 1000.0 nM
[21] = tested on: Receptor-type tyrosine-protein kinase FLT3 (Homo sapiens), P36888 [UNDEFINED MUTATION]; conditions: Compound concentration 1000.0 nM; remark: listed apart in the source
[22] = target: Tyrosine-protein kinase Lyn (Homo sapiens) (UniProt P07948); conditions: Compound concentration 1000.0 nM
Tyrosine-protein kinase Lyn (Homo sapiens), sequence (P07948 2-512 limits assumed): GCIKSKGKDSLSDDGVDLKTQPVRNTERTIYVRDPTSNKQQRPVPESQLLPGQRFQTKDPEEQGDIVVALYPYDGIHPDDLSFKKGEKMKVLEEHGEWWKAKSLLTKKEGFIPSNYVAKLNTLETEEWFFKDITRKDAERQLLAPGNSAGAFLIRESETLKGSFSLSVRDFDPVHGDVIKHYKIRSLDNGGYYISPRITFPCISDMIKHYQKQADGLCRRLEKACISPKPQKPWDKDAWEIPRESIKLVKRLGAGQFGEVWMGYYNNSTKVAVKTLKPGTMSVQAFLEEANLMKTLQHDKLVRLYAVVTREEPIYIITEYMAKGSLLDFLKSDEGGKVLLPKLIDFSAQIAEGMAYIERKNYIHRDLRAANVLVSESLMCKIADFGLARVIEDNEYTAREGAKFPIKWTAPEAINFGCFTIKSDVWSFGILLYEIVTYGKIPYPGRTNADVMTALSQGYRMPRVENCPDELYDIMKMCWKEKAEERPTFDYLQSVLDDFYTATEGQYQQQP

[23] = target: Serine/threonine-protein kinase Nek5 (Homo sapiens) (UniProt Q6P3R8); conditions: Compound concentration 1000.0 nM
Serine/threonine-protein kinase Nek5 (Homo sapiens), sequence (Q6P3R8 whole entry): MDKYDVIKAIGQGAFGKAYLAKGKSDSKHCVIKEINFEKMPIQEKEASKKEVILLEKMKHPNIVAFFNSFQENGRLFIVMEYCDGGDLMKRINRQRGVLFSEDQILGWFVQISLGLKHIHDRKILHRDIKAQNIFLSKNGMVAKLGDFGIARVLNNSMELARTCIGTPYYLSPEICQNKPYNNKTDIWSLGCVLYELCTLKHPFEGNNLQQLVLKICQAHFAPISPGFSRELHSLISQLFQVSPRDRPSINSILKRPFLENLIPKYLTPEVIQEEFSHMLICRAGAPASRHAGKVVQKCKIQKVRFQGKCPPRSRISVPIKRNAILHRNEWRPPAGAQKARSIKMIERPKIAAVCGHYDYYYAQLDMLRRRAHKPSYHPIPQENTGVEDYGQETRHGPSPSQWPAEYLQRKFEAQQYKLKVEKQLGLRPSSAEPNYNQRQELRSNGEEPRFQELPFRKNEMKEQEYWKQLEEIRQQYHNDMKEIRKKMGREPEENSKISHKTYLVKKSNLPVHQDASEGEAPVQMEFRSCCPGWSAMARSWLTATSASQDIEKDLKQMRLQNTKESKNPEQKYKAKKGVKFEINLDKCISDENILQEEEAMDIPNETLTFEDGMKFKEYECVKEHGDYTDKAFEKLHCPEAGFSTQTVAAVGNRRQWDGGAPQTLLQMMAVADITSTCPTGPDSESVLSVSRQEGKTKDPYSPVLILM

[24] = target: Serine/threonine-protein kinase VRK2 (Homo sapiens) (UniProt Q86Y07); conditions: Compound concentration 1000.0 nM
[25] = tested on: Receptor-type tyrosine-protein kinase FLT3 (Homo sapiens), P36888 [R834Q]; conditions: Compound concentration 1000.0 nM
[26] = target: Myosin light chain kinase family member 4 (Homo sapiens) (UniProt Q86YV6); conditions: Compound concentration 1000.0 nM
[27] = target: Mitogen-activated protein kinase kinase kinase 7 (Homo sapiens) (UniProt O43318); conditions: Compound concentration 1000.0 nM
[28] = target: Tyrosine-protein kinase ZAP-70 (Homo sapiens) (UniProt P43403); conditions: Compound concentration 1000.0 nM
[29] = target: Misshapen-like kinase 1 (Homo sapiens) (UniProt Q8N4C8); conditions: Compound concentration 1000.0 nM
Misshapen-like kinase 1 (Homo sapiens), sequence (Q8N4C8 whole entry, looked up): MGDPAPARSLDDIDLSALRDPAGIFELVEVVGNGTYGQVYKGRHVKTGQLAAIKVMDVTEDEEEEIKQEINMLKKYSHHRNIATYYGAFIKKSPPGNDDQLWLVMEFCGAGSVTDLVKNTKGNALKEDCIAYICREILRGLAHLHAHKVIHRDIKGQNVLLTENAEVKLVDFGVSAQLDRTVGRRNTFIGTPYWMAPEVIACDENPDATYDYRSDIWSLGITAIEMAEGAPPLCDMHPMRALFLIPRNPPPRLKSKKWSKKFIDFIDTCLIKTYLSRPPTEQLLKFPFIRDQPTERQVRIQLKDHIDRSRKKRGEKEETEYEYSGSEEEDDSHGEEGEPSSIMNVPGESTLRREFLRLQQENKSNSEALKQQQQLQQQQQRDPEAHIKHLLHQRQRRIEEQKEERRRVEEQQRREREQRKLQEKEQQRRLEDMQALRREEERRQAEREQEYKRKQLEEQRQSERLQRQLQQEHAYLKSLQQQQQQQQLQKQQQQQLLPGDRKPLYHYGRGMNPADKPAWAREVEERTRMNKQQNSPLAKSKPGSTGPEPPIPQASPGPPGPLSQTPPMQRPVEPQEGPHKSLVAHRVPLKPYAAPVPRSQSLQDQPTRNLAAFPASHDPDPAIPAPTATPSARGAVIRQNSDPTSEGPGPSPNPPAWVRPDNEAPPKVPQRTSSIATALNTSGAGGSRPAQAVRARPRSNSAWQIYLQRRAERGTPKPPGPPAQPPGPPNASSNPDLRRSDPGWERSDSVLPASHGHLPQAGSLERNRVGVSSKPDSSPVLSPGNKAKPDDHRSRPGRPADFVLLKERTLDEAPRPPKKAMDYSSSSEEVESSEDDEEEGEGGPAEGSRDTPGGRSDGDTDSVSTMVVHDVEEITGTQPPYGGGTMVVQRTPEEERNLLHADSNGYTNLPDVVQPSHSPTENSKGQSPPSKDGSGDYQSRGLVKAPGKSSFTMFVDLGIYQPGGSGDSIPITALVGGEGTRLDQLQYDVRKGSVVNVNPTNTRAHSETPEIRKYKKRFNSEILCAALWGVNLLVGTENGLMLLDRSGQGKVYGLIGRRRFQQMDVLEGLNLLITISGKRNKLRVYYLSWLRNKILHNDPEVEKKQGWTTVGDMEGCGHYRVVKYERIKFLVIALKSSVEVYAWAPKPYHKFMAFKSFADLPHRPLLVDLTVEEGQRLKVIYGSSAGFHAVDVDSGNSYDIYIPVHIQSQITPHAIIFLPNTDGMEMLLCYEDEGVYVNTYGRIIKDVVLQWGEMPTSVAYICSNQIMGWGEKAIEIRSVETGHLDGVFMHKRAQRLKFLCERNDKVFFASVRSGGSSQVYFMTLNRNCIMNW

[30] = target: Phosphatidylinositol 4-kinase beta (Homo sapiens) (UniProt Q9UBF8); conditions: Compound concentration 1000.0 nM
[31] = target: Ephrin type-A receptor 1 (Homo sapiens) (UniProt P21709); conditions: Compound concentration 1000.0 nM
[32] = target: Ephrin type-B receptor 4 (Homo sapiens) (UniProt P54760); conditions: Compound concentration 1000.0 nM
[33] = target: 5-hydroxytryptamine receptor 1E (Homo sapiens) (UniProt P28566); conditions: Compound concentration 10.0 uM
[34] = target: Aurora kinase A (Homo sapiens) (UniProt O14965); conditions: Compound concentration 1000.0 nM
[35] = tested on: Mast/stem cell growth factor receptor Kit (Homo sapiens), P10721 [V559D]; conditions: Compound concentration 1000.0 nM
[36] = target: Serine/threonine-protein kinase Sgk1 (Homo sapiens) (UniProt O00141); conditions: Compound concentration 1000.0 nM
[37] = target: Casein kinase I isoform epsilon (Homo sapiens) (UniProt P49674); conditions: Compound concentration 1000.0 nM
Casein kinase I isoform epsilon (Homo sapiens), sequence (P49674 whole entry, looked up, canonical isoform): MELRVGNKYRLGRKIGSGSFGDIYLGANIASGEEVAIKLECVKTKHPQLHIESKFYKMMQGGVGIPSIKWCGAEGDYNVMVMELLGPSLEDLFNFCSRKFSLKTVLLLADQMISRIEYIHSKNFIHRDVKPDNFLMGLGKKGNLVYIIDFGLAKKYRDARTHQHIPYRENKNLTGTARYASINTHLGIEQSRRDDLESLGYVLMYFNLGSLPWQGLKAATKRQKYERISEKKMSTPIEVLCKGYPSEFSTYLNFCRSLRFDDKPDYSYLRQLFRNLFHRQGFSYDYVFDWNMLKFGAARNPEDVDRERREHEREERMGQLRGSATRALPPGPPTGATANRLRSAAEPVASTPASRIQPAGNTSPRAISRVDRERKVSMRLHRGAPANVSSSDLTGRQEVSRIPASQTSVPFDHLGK

[38] = tested on: ALK tyrosine kinase receptor (Homo sapiens), Q9UM73 [C1156Y]; conditions: Compound concentration 1000.0 nM
[39] = target: Mitogen-activated protein kinase kinase kinase 3 (Homo sapiens) (UniProt Q99759); conditions: Compound concentration 1000.0 nM
[40] = target: Mitogen-activated protein kinase kinase kinase 5 (Homo sapiens) (UniProt Q99683); conditions: Compound concentration 1000.0 nM
[41] = target: Serine/threonine-protein kinase MARK2 (Homo sapiens) (UniProt Q7KZI7); conditions: Compound concentration 1000.0 nM
[42] = target: Myosin-IIIa (Homo sapiens) (UniProt Q8NEV4); conditions: Compound concentration 1000.0 nM
[43] = target: SNF-related serine/threonine-protein kinase (Homo sapiens) (UniProt Q9NRH2); conditions: Compound concentration 1000.0 nM
[44] = target: Rhodopsin kinase GRK1 (Homo sapiens) (UniProt Q15835); conditions: Compound concentration 1000.0 nM
[45] = target: cAMP-dependent protein kinase catalytic subunit beta (Homo sapiens) (UniProt P22694); conditions: Compound concentration 1000.0 nM

## CC(=O)C1=C(C)N(c2cccc(C(F)(F)F)c2)C(=O)N[C@@H]1c1ccc(C#N)nc1 [BAY-678]
[1]
  residual activity: 97.4%
[2]
  residual activity: 100%
[3]
  residual activity: 100%
[4]
  residual activity: 100%
[5]
  residual activity: 100%
[6]
  inhibition: -6.02%
[7]
  residual activity: 86.7%
[8]
  residual activity: 100%
[9]
  residual activity: 83.8%
[10]
  residual activity: 92.4%
[11]
  residual activity: 100%
[12]
  residual activity: 89%
[13]
  residual activity: 78.2%
[14]
  residual activity: 95.8%
[15]
  residual activity: 94.1%
[16]
  residual activity: 97.1%
[17]
  residual activity: 91.6%
[18]
  residual activity: 100%
[19]
  residual activity: 100%
[20]
  residual activity: 100%
[21]
  residual activity: 61.2%
[22]
  residual activity: 100%
[23]
  residual activity: 80.6%
[24]
  residual activity: 77.6%
[25]
  residual activity: 83.6%
[26]
  residual activity: 100%
[27]
  residual activity: 100%
[28]
  residual activity: 88.1%
[29]
  residual activity: 100%
[30]
  residual activity: 100%
[31]
  residual activity: 100%
[32]
  residual activity: 100%
[33]
  inhibition: 7.74%
[34]
  residual activity: 83.9%
[35]
  residual activity: 100%
[36]
  residual activity: 100%
[37]
  residual activity: 100%
[38]
  residual activity: 100%
[39]
  residual activity: 100%
[40]
  residual activity: 94.8%
[41]
  residual activity: 100%
[42]
  residual activity: 85.1%
[43]
  residual activity: 100%
[44]
  residual activity: 99.2%
[45]
  residual activity: 48.7%
